Measurements: ChEMBL document CHEMBL5649166, “RIP3 induces apoptosis independent of pronecrotic kinase activity” (Mol Cell, 2014)

Assays:
[1] = biological target: Protein kinase C theta type (Homo sapiens) (UniProt Q04759); assay: Residual activity of human PKCtheta using ERMRPRKRQGSVRRRV as substrate at 1 uM in presence of 32P-ATP by Hotspot assay relative to control
[2] = biological target: BDNF/NT-3 growth factors receptor (Homo sapiens) (UniProt Q16620); assay: Residual activity of human TRKB using poly[Glu:Tyr] (4:1) as substrate at 1 uM in presence of 32P-ATP by Hotspot assay relative to control
[3] = biological target: Protein kinase C beta type (Homo sapiens) (UniProt P05771); assay: Inhibition of human PKCb2 using ERMRPRKRQGSVRRRV as substrate at 1 uM in presence of 32P-ATP by Hotspot assay relative to control; values are per cent of control
[4] = biological target: T1, Mitogen-activated protein kinase kinase kinase 7 (Homo sapiens) (UniProt O43318); assay: Inhibition of human TAK1 using casein as substrate at 1 uM in presence of 32P-ATP by Hotspot assay relative to control; values are per cent of control
T1 sequence (whole entry): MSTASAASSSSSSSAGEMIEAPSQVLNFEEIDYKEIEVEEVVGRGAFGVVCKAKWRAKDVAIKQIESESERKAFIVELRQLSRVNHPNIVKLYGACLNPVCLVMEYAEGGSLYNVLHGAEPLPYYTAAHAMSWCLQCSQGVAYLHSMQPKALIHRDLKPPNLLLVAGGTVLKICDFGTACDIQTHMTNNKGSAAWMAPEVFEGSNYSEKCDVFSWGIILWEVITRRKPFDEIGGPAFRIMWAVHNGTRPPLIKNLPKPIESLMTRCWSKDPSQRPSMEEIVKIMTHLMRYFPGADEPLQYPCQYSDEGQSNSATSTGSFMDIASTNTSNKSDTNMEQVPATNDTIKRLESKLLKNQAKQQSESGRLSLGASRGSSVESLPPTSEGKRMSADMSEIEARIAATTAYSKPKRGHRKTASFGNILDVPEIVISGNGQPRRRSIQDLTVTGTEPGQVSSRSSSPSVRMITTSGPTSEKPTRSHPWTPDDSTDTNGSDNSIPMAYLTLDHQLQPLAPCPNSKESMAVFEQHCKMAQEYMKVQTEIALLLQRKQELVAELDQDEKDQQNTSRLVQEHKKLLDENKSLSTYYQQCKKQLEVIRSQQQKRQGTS

[5] = biological target: Serine/threonine-protein kinase SIK2 (Homo sapiens) (UniProt Q9H0K1); assay: Inhibition of human SIK2 using AMARAASAAALARRR as substrate at 1 uM in presence of 32P-ATP by Hotspot assay relative to control
[6] = biological target: Macrophage colony-stimulating factor 1 receptor (Homo sapiens) (UniProt P07333); assay: Inhibition of human FMS using poly[Glu:Tyr] (4:1) as substrate at 1 uM in presence of 32P-ATP by Hotspot assay relative to control; values are per cent of control
[7] = biological target: T2, Serine/threonine-protein kinase Nek3 (Homo sapiens) (UniProt P51956); assay: Residual activity of human NEK3 using myelin basic protein as substrate at 1 uM in presence of 32P-ATP by Hotspot assay relative to control
T2 sequence (whole entry): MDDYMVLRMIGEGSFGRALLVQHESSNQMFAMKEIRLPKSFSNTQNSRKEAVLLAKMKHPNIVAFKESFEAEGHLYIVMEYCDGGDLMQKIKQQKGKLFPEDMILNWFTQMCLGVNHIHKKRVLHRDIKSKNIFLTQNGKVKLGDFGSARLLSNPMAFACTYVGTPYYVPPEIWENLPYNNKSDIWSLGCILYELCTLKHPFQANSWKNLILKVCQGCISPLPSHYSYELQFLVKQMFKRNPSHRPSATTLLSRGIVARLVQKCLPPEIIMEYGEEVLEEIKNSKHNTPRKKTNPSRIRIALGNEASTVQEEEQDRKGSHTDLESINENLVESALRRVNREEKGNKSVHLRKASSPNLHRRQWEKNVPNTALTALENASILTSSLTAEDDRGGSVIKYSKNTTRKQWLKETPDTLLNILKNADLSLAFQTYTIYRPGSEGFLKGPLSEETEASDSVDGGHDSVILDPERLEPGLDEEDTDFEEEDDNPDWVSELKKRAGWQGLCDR

[8] = biological target: T3, Serine/threonine-protein kinase BRSK1 (Homo sapiens) (UniProt Q8TDC3); assay: Inhibition of human BRSK1 using KKKVSRSGLYRSPSMPENLNRPR as substrate at 1 uM in presence of 32P-ATP by Hotspot assay relative to control; values are per cent of control
T3 sequence (whole entry): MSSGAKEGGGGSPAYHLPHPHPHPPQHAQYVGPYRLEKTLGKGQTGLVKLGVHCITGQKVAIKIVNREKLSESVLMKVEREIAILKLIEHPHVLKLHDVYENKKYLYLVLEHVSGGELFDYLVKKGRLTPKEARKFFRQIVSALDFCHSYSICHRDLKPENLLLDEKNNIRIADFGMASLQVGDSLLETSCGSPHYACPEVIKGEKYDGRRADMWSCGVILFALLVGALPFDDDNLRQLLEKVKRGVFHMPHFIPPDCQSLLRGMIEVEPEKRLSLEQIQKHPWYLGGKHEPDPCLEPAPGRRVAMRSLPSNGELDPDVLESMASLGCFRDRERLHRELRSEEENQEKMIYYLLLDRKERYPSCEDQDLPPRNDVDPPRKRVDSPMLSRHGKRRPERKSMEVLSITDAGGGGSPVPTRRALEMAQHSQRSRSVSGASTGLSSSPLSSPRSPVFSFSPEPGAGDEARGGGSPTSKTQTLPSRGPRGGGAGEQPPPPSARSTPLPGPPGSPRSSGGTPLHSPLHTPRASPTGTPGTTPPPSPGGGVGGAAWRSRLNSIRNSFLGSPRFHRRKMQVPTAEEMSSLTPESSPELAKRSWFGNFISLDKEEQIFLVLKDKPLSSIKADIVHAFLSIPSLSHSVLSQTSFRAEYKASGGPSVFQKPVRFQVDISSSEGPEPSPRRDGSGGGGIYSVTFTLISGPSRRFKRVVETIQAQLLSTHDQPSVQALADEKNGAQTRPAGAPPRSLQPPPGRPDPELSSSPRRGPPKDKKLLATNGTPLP

[9] = biological target: Insulin receptor-related protein (Homo sapiens) (UniProt P14616); assay: Inhibition of human IRR/INSRR using myelin basic protein as substrate at 1 uM in presence of 32P-ATP by Hotspot assay relative to control; values are per cent of control
Sequence of Insulin receptor-related protein (Homo sapiens) (P14616 27-742 limits assumed): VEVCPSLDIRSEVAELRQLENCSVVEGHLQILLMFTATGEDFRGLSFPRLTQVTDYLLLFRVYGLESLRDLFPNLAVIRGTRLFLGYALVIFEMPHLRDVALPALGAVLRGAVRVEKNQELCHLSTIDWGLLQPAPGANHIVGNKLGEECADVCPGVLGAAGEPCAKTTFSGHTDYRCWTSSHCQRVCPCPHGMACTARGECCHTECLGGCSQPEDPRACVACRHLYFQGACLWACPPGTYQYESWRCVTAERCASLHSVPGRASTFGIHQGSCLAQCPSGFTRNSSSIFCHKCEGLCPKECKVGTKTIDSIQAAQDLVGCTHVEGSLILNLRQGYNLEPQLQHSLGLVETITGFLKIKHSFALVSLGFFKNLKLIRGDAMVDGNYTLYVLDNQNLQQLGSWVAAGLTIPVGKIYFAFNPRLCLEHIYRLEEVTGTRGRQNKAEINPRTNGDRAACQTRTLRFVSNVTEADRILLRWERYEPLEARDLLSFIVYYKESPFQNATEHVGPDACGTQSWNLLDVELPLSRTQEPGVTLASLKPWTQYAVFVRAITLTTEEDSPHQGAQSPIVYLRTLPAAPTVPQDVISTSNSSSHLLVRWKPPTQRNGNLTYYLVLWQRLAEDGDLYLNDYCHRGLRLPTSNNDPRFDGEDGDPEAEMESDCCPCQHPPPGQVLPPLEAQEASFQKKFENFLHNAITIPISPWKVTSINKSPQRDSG
Sequence of Insulin receptor-related protein (Homo sapiens) (P14616 747-1297 limits assumed): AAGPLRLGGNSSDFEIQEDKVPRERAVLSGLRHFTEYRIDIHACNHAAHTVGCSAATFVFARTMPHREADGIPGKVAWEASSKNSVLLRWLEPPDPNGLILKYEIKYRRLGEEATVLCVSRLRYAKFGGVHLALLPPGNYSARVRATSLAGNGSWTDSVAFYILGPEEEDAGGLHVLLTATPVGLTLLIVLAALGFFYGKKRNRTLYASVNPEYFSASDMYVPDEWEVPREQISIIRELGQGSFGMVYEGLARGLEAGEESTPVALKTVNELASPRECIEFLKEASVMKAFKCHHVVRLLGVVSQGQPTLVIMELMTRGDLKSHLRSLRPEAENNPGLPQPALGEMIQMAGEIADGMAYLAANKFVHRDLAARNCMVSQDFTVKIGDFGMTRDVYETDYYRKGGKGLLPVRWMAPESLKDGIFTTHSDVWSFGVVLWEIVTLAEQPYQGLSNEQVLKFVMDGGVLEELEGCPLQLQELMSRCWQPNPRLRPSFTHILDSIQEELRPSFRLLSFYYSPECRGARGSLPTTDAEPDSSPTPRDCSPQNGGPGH

Sequence of BDNF/NT-3 growth factors receptor (Homo sapiens) (Q16620 32-822 limits assumed): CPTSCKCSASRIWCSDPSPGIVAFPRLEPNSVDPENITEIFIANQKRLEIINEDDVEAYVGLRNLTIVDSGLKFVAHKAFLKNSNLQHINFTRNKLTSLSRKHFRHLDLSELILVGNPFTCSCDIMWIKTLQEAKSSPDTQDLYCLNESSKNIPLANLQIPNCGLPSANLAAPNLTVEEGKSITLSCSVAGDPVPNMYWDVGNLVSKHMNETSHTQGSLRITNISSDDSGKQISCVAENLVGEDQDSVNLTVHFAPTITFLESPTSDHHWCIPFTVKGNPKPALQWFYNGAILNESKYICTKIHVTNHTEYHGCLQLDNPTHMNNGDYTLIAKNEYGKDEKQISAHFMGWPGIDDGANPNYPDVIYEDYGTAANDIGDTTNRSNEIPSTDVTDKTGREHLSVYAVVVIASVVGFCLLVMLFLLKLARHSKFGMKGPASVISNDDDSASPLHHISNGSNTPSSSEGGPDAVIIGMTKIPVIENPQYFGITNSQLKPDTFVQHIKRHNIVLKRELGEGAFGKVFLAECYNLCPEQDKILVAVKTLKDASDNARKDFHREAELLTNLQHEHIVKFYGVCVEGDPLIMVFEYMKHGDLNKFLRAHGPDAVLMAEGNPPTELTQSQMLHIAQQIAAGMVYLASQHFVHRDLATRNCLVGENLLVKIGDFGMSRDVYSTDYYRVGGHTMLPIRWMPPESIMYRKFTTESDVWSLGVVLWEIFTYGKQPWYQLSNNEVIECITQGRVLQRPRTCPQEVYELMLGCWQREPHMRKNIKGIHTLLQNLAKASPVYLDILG
Sequence of Macrophage colony-stimulating factor 1 receptor (Homo sapiens) (P07333 whole entry): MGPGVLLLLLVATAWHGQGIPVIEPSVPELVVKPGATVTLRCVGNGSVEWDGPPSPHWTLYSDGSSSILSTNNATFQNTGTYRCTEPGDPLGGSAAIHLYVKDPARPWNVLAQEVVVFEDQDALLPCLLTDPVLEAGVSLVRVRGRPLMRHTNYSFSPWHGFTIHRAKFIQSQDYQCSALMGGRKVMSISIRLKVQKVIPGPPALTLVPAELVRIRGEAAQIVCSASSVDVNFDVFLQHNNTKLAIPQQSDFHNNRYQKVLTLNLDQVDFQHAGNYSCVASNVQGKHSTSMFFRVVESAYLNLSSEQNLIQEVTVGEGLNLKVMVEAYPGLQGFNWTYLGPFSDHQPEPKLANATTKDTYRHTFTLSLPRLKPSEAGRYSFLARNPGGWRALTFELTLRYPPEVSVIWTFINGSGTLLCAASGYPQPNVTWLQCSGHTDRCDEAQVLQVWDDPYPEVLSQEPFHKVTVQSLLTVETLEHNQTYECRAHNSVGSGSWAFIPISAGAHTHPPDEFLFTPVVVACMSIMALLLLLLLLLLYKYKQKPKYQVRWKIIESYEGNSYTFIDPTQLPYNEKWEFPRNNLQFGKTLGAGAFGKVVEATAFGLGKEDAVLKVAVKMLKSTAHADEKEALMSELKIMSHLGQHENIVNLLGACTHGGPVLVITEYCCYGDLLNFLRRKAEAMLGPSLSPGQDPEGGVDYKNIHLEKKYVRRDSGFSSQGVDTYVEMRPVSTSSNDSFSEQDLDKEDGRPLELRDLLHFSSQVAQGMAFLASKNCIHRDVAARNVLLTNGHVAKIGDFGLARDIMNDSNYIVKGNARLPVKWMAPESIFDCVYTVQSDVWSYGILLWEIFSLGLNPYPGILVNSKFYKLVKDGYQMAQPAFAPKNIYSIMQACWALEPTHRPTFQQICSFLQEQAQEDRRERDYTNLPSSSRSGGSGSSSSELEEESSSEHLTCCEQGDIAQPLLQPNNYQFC
Sequence of Protein kinase C theta type (Homo sapiens) (Q04759 whole entry, looked up): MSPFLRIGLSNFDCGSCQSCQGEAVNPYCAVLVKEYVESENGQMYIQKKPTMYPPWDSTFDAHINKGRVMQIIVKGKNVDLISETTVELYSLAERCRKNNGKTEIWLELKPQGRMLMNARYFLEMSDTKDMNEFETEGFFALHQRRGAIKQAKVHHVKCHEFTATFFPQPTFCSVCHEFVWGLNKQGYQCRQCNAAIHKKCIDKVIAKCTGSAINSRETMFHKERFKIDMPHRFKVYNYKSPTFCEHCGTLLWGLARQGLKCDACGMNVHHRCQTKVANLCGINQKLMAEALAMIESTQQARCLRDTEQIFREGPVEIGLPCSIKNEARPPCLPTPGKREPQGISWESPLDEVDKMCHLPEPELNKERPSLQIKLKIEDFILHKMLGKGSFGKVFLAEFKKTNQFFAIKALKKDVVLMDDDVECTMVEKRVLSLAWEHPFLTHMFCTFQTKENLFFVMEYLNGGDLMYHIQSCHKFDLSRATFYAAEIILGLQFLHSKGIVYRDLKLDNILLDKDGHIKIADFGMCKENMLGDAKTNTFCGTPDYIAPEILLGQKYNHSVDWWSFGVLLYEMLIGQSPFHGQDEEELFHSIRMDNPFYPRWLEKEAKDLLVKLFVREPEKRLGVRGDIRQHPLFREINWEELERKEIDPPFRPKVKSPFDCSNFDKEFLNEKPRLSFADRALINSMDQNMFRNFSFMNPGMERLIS
Sequence of Serine/threonine-protein kinase SIK2 (Homo sapiens) (Q9H0K1 whole entry, looked up): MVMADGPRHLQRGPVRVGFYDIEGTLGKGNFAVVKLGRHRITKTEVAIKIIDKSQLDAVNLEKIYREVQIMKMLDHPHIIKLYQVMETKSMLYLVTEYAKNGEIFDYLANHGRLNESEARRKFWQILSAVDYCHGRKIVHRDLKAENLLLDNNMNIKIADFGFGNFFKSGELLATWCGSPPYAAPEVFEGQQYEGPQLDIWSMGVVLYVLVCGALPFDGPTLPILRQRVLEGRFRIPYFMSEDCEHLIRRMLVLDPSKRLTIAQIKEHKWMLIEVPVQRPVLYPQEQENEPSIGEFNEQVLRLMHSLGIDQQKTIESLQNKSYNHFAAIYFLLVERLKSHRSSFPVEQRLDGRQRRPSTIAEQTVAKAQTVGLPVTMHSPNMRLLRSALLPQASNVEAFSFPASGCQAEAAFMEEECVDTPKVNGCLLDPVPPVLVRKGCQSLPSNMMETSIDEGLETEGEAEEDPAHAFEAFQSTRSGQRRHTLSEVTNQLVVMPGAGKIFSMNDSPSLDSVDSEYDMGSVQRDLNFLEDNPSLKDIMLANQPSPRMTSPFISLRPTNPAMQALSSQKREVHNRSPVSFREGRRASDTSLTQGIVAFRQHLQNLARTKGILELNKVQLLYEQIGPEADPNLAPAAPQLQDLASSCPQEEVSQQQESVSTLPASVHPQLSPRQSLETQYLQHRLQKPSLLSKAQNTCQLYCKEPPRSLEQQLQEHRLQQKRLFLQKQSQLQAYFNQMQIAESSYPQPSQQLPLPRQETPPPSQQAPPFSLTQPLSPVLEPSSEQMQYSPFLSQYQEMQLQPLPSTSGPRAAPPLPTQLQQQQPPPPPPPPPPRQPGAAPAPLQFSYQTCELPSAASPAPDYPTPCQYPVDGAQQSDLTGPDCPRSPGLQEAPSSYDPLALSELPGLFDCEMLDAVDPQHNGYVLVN

CC(C)S(=O)(=O)c1ccc2nccc(Nc3ccc4scnc4c3)c2c1
residual activity [1]: 92.8%
residual activity [2]: 86.7%
residual activity [3]: 94.8%
residual activity [4]: 97.6%
inhibition [5]: 93.1%
residual activity [6]: 108%
residual activity [7]: 92%
residual activity [8]: 101%
residual activity [9]: 98.6%

Cc1cc(-c2cnc(N)c3c(-c4ccc5scnc5c4)csc23)n(C)n1
residual activity [1]: 98.3%
residual activity [2]: 106%
residual activity [3]: 76.8%
residual activity [4]: 96.2%
inhibition [5]: 92%
residual activity [6]: 19.4%
residual activity [7]: 99.7%
residual activity [8]: 101%
residual activity [9]: 86.7%

CNC(=O)c1ccc2c(c1)ncn2-c1ccc(CC(=O)OC(C)(C)C)cc1
residual activity [1]: 104%
residual activity [2]: 97.8%
residual activity [3]: 94.7%
residual activity [4]: 106%
inhibition [5]: 93.2%
residual activity [6]: 91.8%
residual activity [7]: 91.3%
residual activity [8]: 96.6%
residual activity [9]: 93.3%
